# Reference: patent publication EP4722212A1, “NOVEL COMPOUND FOR INHIBITING PROTEIN KINASES AND PHARMACEUTICAL COMPOSITION COMPRISING SAME” (Magicbullettherapeutics Co., Ltd., priority 2023, dated 2024)
# Read-outs that look alike come from different tables or passages of the source.
# Legend:
# Assay in all cases: Kinase panel
# Assay type in all cases: biochemical
# [1] = target: AXL (Homo sapiens, UniProt P30530); settings: read-out: residual enzyme activity
# Procedure: (§1) To measure the inhibitory activity of protein kinases against the compounds of the present invention, a biochemical assay was performed using a full kinase panel. The inhibitory efficacy of kinases was measured when Example compounds 8 and 51 were treated at a single concentration of 1 µM, and residual enzyme activity values were calculated. Kinases were identified when the calculated residual enzyme activity values were 40% or less, i.e., inhibited by 60% or more.
# [2] = target: ALK3/BMPR1A (Homo sapiens, UniProt P36894); settings: read-out: residual enzyme activity
# Procedure: as §1
# [3] = target: TSSK3/STK22C (Homo sapiens, UniProt Q96PN8); settings: read-out: residual enzyme activity
# Procedure: as §1
# [4] = target: CDK16/CYCLIN Y (PCTAIRE) (Homo sapiens, UniProt Q00536); settings: read-out: residual enzyme activity
# Procedure: as §1
# [5] = target: ERN1/IRE1 (Homo sapiens, UniProt O75460); settings: ERN1/IRE1, 1 µM; read-out: residual enzyme activity
# Procedure: as §1
# [6] = target: DYRK3 (Homo sapiens, UniProt O43781); settings: DYRK3, 1 µM; read-out: residual enzyme activity
# Procedure: as §1
# [7] = target: CDK4/CYCLIN D1 (Homo sapiens, UniProt P11802); settings: CDK4/cyclin D1, 1 µM; read-out: residual enzyme activity
# Procedure: as §1
# [8] = target: HIPK4 (Homo sapiens, UniProt Q8NE63); settings: HIPK4, 1 µM; read-out: residual enzyme activity
# Procedure: as §1
# [9] = target: TESK2 (Homo sapiens, UniProt Q96S53); settings: TESK2, 1 µM; read-out: residual enzyme activity
# Procedure: as §1
# [10] = target: CK1D (Homo sapiens, UniProt P48730); settings: read-out: residual enzyme activity
# Procedure: as §1
# [11] = target: CLK2 (Homo sapiens, UniProt P49760); settings: CLK2, 1 µM; read-out: residual enzyme activity
# Procedure: as §1
# [12] = target: SSTK/TSSK6 (Homo sapiens, UniProt Q9BXA6); settings: SSTK/TSSK6, 1 µM; read-out: residual enzyme activity
# Procedure: as §1
# [13] = target: RAF1 (Homo sapiens, UniProt P04049); settings: RAF1, 1 µM; read-out: residual enzyme activity
# Procedure: as §1
# [14] = target: MEK2 (Homo sapiens, UniProt P36507); settings: MEK2, 1 µM; read-out: residual enzyme activity
# Procedure: as §1
# [15] = target: MEK3 (Homo sapiens, UniProt P46734); settings: MEK3, 1 µM; read-out: residual enzyme activity
# Procedure: as §1
# [16] = target: GRK5 (Homo sapiens, UniProt P34947); settings: GRK5, 1 µM; read-out: residual enzyme activity
# Procedure: as §1
# [17] = target: HIPK1 (Homo sapiens, UniProt Q86Z02); settings: HIPK1, 1 µM; read-out: residual enzyme activity
# Procedure: as §1
# [18] = target: DCAMKL1 (Homo sapiens, UniProt O15075); settings: DCAMKL1, 1 µM; read-out: residual enzyme activity
# Procedure: as §1
# [19] = target: AURORA B (Homo sapiens, UniProt Q96GD4); settings: read-out: residual enzyme activity
# Procedure: as §1
# [20] = target: CK2A (Homo sapiens, UniProt P68400); settings: read-out: residual enzyme activity
# Procedure: as §1
# [21] = target: TYRO3/SKY (Homo sapiens, UniProt Q06418); settings: read-out: residual enzyme activity
# Procedure: as §1
# [22] = target: CK1A1 (Homo sapiens, UniProt P48729); settings: read-out: residual enzyme activity
# Procedure: as §1
# [23] = target: SBK1 (Homo sapiens, UniProt Q52WX2); settings: SBK1, 1 µM; read-out: residual enzyme activity
# Procedure: as §1
# [24] = target: MARK2/PAR-IBA (Homo sapiens, UniProt Q7KZI7); settings: read-out: residual enzyme activity
# Procedure: as §1
# [25] = target: RIPK2 (Homo sapiens, UniProt O43353); settings: RIPK2, 1 µM; read-out: residual enzyme activity
# Procedure: as §1
# [26] = target: KSR1 (Homo sapiens, UniProt Q8IVT5); settings: KSR1, 1 µM; read-out: residual enzyme activity
# Procedure: as §1
# [27] = target: NEK5 (Homo sapiens, UniProt Q6P3R8); settings: NEK5, 1 µM; read-out: residual enzyme activity
# Procedure: as §1
# [28] = target: CKIG3 (Homo sapiens, UniProt Q9Y6M4); settings: CKIG3, 1 µM; read-out: residual enzyme activity
# Procedure: as §1
# [29] = target: MEKK6 (Homo sapiens, UniProt O95382); settings: MEKK6, 1 µM; read-out: residual enzyme activity
# Procedure: as §1
# [30] = target: PHKG1 (Homo sapiens, UniProt Q16816); settings: read-out: residual enzyme activity
# Procedure: as §1
# [31] = target: BMX/ETK (Homo sapiens, UniProt P51813); settings: read-out: residual enzyme activity
# Procedure: as §1
# [32] = target: FLT1/VEGFR1 (Homo sapiens, UniProt P17948); settings: FLT1/VEGFR1, 1 µM; read-out: residual enzyme activity
# Procedure: as §1
# [33] = target: C-MET (Homo sapiens, UniProt P08581); settings: read-out: residual enzyme activity
# Procedure: as §1
# Sequence of ERN1/IRE1 (O75460 19-977): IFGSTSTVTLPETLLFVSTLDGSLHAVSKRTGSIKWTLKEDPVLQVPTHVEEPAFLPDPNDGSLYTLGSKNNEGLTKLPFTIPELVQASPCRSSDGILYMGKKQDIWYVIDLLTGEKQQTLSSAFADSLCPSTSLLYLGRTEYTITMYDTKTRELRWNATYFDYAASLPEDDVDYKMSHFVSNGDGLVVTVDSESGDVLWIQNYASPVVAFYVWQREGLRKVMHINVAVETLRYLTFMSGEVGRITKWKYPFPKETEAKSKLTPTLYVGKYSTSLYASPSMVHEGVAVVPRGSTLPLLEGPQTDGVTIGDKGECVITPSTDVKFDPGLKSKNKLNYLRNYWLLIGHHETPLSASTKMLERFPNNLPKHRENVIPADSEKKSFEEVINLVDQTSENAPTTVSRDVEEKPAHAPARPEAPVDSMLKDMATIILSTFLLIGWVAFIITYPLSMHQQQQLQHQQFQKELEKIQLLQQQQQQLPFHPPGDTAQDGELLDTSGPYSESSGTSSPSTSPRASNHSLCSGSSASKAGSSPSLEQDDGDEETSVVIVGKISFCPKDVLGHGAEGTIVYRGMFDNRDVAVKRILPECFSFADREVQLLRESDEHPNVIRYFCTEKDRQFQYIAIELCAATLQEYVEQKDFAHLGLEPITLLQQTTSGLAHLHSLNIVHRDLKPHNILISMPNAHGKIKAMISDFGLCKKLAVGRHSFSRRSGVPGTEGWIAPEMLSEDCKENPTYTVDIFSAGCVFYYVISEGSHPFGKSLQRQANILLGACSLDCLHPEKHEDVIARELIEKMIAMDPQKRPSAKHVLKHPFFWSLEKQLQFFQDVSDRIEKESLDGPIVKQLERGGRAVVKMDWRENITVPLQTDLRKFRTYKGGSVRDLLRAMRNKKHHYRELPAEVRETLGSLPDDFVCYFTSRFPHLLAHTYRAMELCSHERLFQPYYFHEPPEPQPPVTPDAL
# Sequence of MEKK6 (O95382 whole entry, species assumed): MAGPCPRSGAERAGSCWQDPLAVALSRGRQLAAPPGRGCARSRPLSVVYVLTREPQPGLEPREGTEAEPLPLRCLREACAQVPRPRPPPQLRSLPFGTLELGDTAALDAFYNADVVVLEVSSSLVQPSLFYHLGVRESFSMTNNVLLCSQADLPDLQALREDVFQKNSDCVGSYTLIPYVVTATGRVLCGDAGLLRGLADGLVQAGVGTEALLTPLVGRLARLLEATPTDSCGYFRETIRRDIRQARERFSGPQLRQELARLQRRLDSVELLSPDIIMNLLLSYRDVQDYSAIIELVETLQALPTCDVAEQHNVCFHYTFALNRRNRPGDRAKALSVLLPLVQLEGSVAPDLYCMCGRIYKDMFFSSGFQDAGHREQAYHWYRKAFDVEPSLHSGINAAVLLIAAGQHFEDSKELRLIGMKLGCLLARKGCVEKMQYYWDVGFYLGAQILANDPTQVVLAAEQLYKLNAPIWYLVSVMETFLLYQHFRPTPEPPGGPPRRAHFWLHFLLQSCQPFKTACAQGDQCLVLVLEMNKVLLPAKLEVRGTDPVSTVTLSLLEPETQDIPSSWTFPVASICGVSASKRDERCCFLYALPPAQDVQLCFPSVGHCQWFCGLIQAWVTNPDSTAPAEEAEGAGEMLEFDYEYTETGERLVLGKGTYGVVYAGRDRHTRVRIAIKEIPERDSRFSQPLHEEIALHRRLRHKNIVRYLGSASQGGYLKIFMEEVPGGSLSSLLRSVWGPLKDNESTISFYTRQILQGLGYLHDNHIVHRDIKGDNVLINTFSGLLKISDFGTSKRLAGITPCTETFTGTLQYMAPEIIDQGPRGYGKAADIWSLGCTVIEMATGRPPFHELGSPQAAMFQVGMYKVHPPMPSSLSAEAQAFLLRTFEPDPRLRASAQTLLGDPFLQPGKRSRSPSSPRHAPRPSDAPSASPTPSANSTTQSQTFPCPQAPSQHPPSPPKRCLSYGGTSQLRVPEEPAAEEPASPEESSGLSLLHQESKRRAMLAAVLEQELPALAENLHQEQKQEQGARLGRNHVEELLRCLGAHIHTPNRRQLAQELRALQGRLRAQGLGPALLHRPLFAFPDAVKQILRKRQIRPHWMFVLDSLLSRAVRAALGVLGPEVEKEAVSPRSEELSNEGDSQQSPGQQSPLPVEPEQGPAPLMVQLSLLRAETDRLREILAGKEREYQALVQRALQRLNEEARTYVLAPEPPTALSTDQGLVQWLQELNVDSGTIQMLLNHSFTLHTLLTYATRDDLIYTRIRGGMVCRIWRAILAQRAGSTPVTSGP
# Sequence of FLT1/VEGFR1 (P17948 27-1338): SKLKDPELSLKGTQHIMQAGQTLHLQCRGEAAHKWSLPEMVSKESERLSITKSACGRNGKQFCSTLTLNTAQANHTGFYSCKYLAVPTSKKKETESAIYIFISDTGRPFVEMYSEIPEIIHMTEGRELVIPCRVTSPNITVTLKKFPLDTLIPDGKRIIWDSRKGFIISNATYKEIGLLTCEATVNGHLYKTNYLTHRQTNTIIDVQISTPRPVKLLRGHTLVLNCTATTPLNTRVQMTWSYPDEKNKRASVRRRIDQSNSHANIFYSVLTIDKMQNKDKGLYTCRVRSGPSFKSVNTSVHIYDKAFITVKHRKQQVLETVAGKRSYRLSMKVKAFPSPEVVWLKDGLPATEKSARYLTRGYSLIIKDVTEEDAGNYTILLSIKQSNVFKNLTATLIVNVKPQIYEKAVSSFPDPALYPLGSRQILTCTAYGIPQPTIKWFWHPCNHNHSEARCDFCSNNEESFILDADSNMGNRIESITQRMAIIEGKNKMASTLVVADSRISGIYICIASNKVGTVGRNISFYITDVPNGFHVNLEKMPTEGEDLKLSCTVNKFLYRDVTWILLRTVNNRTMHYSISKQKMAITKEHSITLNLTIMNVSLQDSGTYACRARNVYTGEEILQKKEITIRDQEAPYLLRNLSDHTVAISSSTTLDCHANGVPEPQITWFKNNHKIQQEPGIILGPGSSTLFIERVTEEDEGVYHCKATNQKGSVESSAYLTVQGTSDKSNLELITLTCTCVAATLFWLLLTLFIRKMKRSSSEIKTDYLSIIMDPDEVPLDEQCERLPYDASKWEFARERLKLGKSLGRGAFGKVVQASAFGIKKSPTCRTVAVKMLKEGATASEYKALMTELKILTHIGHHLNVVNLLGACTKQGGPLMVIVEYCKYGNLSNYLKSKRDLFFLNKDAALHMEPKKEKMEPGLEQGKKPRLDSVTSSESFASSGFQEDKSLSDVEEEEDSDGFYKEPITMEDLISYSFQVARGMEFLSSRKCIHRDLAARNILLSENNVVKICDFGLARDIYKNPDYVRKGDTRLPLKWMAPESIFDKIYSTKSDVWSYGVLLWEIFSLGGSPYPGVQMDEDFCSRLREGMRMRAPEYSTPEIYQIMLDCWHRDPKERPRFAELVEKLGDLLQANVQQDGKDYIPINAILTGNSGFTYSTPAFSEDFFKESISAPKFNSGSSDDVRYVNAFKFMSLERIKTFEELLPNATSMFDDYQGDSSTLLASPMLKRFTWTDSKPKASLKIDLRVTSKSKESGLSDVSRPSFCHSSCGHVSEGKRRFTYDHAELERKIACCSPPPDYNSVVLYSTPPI
# Sequence of MARK2/PAR-IBA (Q7KZI7 whole entry): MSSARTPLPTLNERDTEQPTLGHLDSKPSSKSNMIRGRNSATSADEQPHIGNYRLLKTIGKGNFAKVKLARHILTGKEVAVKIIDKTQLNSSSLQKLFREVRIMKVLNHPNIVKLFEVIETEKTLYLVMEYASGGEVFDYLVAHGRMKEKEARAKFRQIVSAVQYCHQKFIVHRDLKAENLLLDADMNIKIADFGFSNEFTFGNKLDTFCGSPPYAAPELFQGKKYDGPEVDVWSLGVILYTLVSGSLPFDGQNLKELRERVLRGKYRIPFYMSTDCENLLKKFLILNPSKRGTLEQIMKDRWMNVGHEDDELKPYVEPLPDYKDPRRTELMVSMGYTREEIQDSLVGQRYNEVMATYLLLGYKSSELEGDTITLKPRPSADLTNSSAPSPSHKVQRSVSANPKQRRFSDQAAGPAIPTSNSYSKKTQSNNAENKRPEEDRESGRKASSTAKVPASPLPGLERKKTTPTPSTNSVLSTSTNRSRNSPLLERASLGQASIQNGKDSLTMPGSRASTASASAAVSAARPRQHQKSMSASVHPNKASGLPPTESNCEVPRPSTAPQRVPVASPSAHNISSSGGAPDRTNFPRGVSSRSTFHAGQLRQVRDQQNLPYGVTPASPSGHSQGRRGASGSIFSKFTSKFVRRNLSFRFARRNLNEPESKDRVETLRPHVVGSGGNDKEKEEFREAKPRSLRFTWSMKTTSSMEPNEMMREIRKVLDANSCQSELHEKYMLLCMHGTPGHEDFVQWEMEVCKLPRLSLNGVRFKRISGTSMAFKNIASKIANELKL
# Sequence of TSSK3/STK22C (Q96PN8 whole entry): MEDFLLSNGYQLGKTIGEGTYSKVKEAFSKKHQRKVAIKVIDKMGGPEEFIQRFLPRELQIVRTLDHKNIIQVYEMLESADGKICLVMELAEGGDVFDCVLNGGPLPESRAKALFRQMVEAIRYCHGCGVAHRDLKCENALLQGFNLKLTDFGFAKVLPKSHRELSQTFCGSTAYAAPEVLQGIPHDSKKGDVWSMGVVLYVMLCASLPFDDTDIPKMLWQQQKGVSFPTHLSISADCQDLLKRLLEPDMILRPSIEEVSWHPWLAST
# Sequence of SBK1 (Q52WX2 whole entry, species assumed): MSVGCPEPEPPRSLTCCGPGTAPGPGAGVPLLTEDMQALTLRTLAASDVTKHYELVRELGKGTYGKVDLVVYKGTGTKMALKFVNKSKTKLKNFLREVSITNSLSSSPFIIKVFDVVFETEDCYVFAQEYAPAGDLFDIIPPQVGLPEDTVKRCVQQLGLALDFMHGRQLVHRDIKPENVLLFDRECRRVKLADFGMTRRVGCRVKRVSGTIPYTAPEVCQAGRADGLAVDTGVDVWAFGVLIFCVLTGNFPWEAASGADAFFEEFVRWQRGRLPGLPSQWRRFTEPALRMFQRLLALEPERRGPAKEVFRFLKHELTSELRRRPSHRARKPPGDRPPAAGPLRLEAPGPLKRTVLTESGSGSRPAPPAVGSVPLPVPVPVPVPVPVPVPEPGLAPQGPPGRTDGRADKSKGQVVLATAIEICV
structure (smiles),measurement,setting,value
"Cc1ccc(Nc2ncc3c(n2)C2(CC2)C(=O)N(c2cc(NC(=O)c4cccc(C(F)(F)F)c4)ccc2C)C3)cn1 [Compound 51, N-(4-methyl-3-(2'-((6-methylpyridin-3-yl)amino)-7'-oxo-5'H-spiro[cyclopropane-1,8'-pyrido[4,3-d]pyrimidine]-6'(7'H)-yl)phenyl)-3-(trifluoromethyl)benzamide]",remaining activity at 1 µM,[1],> 40%
same,remaining activity at 1 µM,[2],> 40%
same,remaining activity at 1 µM,[3],> 40%
same,remaining activity at 1 µM,[4],> 40%
same,remaining activity at 1 µM,[5],> 40%
same,remaining activity at 1 µM,[6],> 40%
same,remaining activity at 1 µM,[7],> 40%
same,remaining activity at 1 µM,[8],≤ 40%
same,remaining activity at 1 µM,[9],≤ 40%
same,remaining activity at 1 µM,[10]; CKld,> 40%
same,remaining activity at 1 µM,[11],> 40%
same,remaining activity at 1 µM,[12],> 40%
same,remaining activity at 1 µM,[13],≤ 40%
same,remaining activity at 1 µM,[14],> 40%
same,remaining activity at 1 µM,[15],> 40%
same,remaining activity at 1 µM,[16],> 40%
same,remaining activity at 1 µM,[17],> 40%
same,remaining activity at 1 µM,[18],> 40%
same,remaining activity at 1 µM,[19],> 40%
same,remaining activity at 1 µM,[20]; CK2a,> 40%
same,remaining activity at 1 µM,[21],≤ 40%
same,remaining activity at 1 µM,"[22]; CKlal, 1 µM",> 40%
same,remaining activity at 1 µM,[23],> 40%
same,remaining activity at 1 µM,[24]; MARK2/PAR-IBa,> 40%
same,remaining activity at 1 µM,[25],> 40%
same,remaining activity at 1 µM,[26],> 40%
same,remaining activity at 1 µM,[27],> 40%
same,remaining activity at 1 µM,[28],> 40%
same,remaining activity at 1 µM,[29],> 40%
same,remaining activity at 1 µM,"[30]; PHKgl, 1 µM",> 40%
same,remaining activity at 1 µM,[31],≤ 40%
same,remaining activity at 1 µM,[32],≤ 40%
same,remaining activity at 1 µM,[33]; c-MET,> 40%
"Cc1cn(-c2cc(C(=O)Nc3ccc(C)c(N4Cc5cnc(NC6CC6)nc5C5(CC5)C4=O)c3)cc(C(F)(F)F)c2)cn1 [Compound 8, N-(3-(2'-(cyclopropylamino)-7'-oxo-5'H-spiro[cyclopropane-1,8'-pyrido[4,3-d]pyrimidine]-6'(7'H)-yl)-4-methylphenyl)-3-(4-methyl-1H-imidazol-1-yl)-5-(trifluoromethyl)benzamide]",remaining activity at 1 µM,[1],> 40%
same,remaining activity at 1 µM,[2],> 40%
same,remaining activity at 1 µM,[3],> 40%
same,remaining activity at 1 µM,[4],> 40%
same,remaining activity at 1 µM,[5],> 40%
same,remaining activity at 1 µM,[6],> 40%
same,remaining activity at 1 µM,[7],> 40%
same,remaining activity at 1 µM,[8],> 40%
same,remaining activity at 1 µM,[9],≤ 40%
same,remaining activity at 1 µM,[10]; CK1D,> 40%
same,remaining activity at 1 µM,[11],> 40%
same,remaining activity at 1 µM,[12],> 40%
same,remaining activity at 1 µM,[13],≤ 40%
same,remaining activity at 1 µM,[14],> 40%
same,remaining activity at 1 µM,[15],> 40%
same,remaining activity at 1 µM,[16],> 40%
same,remaining activity at 1 µM,[17],> 40%
same,remaining activity at 1 µM,[18],> 40%
same,remaining activity at 1 µM,[19],> 40%
same,remaining activity at 1 µM,[20]; CK2A,> 40%
same,remaining activity at 1 µM,[21],> 40%
same,remaining activity at 1 µM,"[22]; CK1A1, 1 µM",> 40%
same,remaining activity at 1 µM,[23],> 40%
same,remaining activity at 1 µM,[24]; MARK2/PAR-IBA,> 40%
same,remaining activity at 1 µM,[25],> 40%
same,remaining activity at 1 µM,[26],> 40%
same,remaining activity at 1 µM,[27],> 40%
same,remaining activity at 1 µM,[28],> 40%
same,remaining activity at 1 µM,[29],> 40%
same,remaining activity at 1 µM,"[30]; PHKG1, 1 µM",> 40%
same,remaining activity at 1 µM,[31],≤ 40%
same,remaining activity at 1 µM,[32],≤ 40%
same,remaining activity at 1 µM,[33]; C-MET,> 40%
